{"source": "paper PMC10892984", "about": "“Novel Antineoplastic Inducers of Mitochondrial Apoptosis in Human Cancer Cells” (Molecules, 2024)", "key": {"MALME-3M": {"tested_on": "MALME-3M", "conditions": "48 h"}, "HS 578T": {"tested_on": "HS 578T", "conditions": "48 h"}, "[1]": {"tested_on": "60 human cancer cell lines", "description": "The defined tumor inhibition criterion (GI50, TGI, or LC50) is recalculated in log10 expression, and the colored bars, which indicate then the sensitivity of the individual tumor cell line to the agent, are given in log10 units. […] The most important feature is at the bottom of the page: the MID (Mean of Inhibition Data) indicates the mean concentration for all tested cell lines required for the drug to reach the defined tumor inhibition criterion (GI50, TGI, or LC50). It is given in Log10GI50, Log10TGI, and Log10LC50. From those values, the corresponding MID is calculated. […] The MID can be transformed from logarithmic into linear concentrations by the formula: c = 10^MID.\nThe human tumor cell lines of the cancer screening panel are grown in RPMI-1640 medium containing 5% fetal bovine serum (FBS) and 2 mM L-glutamine. For a typical screening experiment, cells are inoculated into 96-well microtiter plates in 100 μL at plating densities ranging from 5000 to 40,000 cells/well, depending on the doubling time of individual cell lines. After cell inoculation, the microtiter plates are incubated at 37 °C, 5% CO2, 95% air, and 100% relative humidity for 24 h prior to the addition of experimental drugs. After 24 h, two plates of each cell line are fixed in situ with trichloroacetic acid (TCA) to represent a measurement of the cell population for each cell line at the time of drug addition (Tz). Experimental drugs are solubilized in dimethyl sulfoxide (DMSO) at 400-fold the desired final maximum test concentration and stored frozen prior to use. At the time of drug addition, an aliquot of frozen concentrate is thawed and diluted to twice the desired final maximum test concentration with a complete medium containing 50 μg/mL gentamicin. Additional four, 10-fold or ½ log serial dilutions are made to provide a total of five drug concentrations plus control. Aliquots of 100 μL of these different drug dilutions are added to the appropriate microtiter wells already containing 100 μL of the medium, resulting in the required final drug concentrations.\nFollowing drug addition, the plates are incubated for an additional 48 h at 37 °C, 5% CO2, 95% air, and 100% relative humidity. For adherent cells, the assay is terminated by the addition of cold TCA. Cells are fixed in situ by the gentle addition of 50 μL of cold 50% (m/v) TCA (final concentration, 10% TCA) and incubated for 60 min at 4 °C. The supernatant is discarded, and the plates are washed five times with tap water and air dried. Sulforhodamine B (SRB) solution [100 μL at 0.4% (m/v) in 1% acetic acid] is added to each well, and plates are incubated for 10 min at room temperature. After staining, unbound dye is removed by washing five times with 1% acetic acid, and the plates are air dried. Bound stain is subsequently solubilized with 10 mM trizma® base [2-amino-2-(hydroxymethyl)-1,3-propandiol, tris base, trometamol], and the absorbance is read on an automated plate reader at a wavelength of λ = 515 nm. For suspension cells, the methodology is the same, except that the assay is terminated by fixing settled cells at the bottom of the wells by gently adding 50 μL of 80% TCA (final concentration, 16% TCA). Using the seven absorbance measurements [time zero, (Tz), control growth, (C), and test growth in the presence of the drug at the five concentration levels (Ti)], the percentage growth is calculated at each of the drug concentration levels. Percentage growth inhibition is calculated as:[(Ti − Tz)/(C − Tz)] × 100 for concentrations for which Ti ≥ Tz [(Ti − Tz)/Tz] × 100 for concentrations for which Ti < Tz\nThree dose-response parameters are calculated for each experimental agent."}, "[2]": {"conditions": "Homo sapiens, 48 h, read-out: LC50"}}}
{"smiles": "COc1cc2c(c(OC)c1OC)-c1ccc(NNC(N)=S)c(=O)cc1C(NC(C)=O)CC2", "note": "[Compound 2, N-[(aS,7S)-10-(2-carbamothioylhydrazinyl)-1,2,3-trimethoxy-9-oxo-5,6,7,9-tetrahydrobenzo[a]heptalen-7-yl]acetamide monohydrate × ⅔ (ethyl acetate)]", "values": [{"measurement": "GI50", "setting": "MCF7; Homo sapiens, MCF7, 48 h", "result": 415, "unit": "nM"}, {"measurement": "CC50", "setting": "MCF7; Homo sapiens, MCF7, 48 h, read-out: LC50", "result": "> 100000", "unit": "nM"}, {"measurement": "TGI", "setting": "MCF7; MCF7, breast cancer, wild-type p53, 48 h", "result": "> 100000", "unit": "nM"}, {"measurement": "GI50", "setting": "RPMI-8226; Homo sapiens, RPMI-8226, 48 h", "result": 349, "unit": "nM"}, {"measurement": "CC50", "setting": "RPMI-8226; Homo sapiens, RPMI-8226, 48 h, read-out: LC50", "result": "> 100000", "unit": "nM"}, {"measurement": "TGI", "setting": "RPMI-8226; RPMI-8226, leukemia, mutant p53, 48 h", "result": 8650, "unit": "nM"}, {"measurement": "GI50", "setting": "M14; Homo sapiens, M14, 48 h", "result": 284, "unit": "nM"}, {"measurement": "CC50", "setting": "M14; Homo sapiens, M14, 48 h, read-out: LC50", "result": "> 100000", "unit": "nM"}, {"measurement": "TGI", "setting": "M14; M14, melanoma, mutant p53, 48 h", "result": 735, "unit": "nM"}, {"measurement": "GI50", "setting": "OVCAR-4; Homo sapiens, OVCAR-4, 48 h", "result": 507, "unit": "nM"}, {"measurement": "CC50", "setting": "OVCAR-4; Homo sapiens, OVCAR-4, 48 h, read-out: LC50", "result": "> 100000", "unit": "nM"}, {"measurement": "TGI", "setting": "OVCAR-4; OVCAR-4, ovarian cancer, mutant p53, 48 h", "result": "> 100000", "unit": "nM"}, {"measurement": "GI50", "setting": "MALME-3M; Homo sapiens, Malme-3M", "result": 394, "unit": "nM"}, {"measurement": "CC50", "setting": "MALME-3M; Homo sapiens, Malme-3M, read-out: LC50", "result": "> 100000", "unit": "nM"}, {"measurement": "TGI", "setting": "MALME-3M; MALME-3M, melanoma, wild-type p53", "result": "> 100000", "unit": "nM"}, {"measurement": "GI50", "setting": "MDA-MB-468; Homo sapiens, MDA-MB-468, 48 h", "result": 158, "unit": "nM"}, {"measurement": "CC50", "setting": "MDA-MB-468; Homo sapiens, MDA-MB-468, 48 h, read-out: LC50", "result": "> 100000", "unit": "nM"}, {"measurement": "TGI", "setting": "MDA-MB-468; MDA-MB-468, breast cancer, mutant p53, 48 h", "result": 464, "unit": "nM"}, {"measurement": "GI50", "setting": "NCI-H522; Homo sapiens, NCI-H522, 48 h", "result": 550, "unit": "nM"}, {"measurement": "CC50", "setting": "NCI-H522; Homo sapiens, NCI-H522, 48 h, read-out: LC50", "result": "> 100000", "unit": "nM"}, {"measurement": "TGI", "setting": "NCI-H522; NCI-H522, non-small-cell lung cancer, mutant p53, 48 h", "result": "> 100000", "unit": "nM"}, {"measurement": "TGI", "setting": "HCT-116; HCT-116, colon cancer, wild-type p53, 48 h", "result": 10600, "unit": "nM"}, {"measurement": "GI50", "setting": "HCT-116; Homo sapiens, HCT-116, 48 h", "result": 377, "unit": "nM"}, {"measurement": "CC50", "setting": "HCT-116; Homo sapiens, HCT-116, 48 h, read-out: LC50", "result": "> 100000", "unit": "nM"}, {"measurement": "TGI", "setting": "DU-145; DU-145, prostate cancer, mutant p53, 48 h", "result": 1440, "unit": "nM"}, {"measurement": "GI50", "setting": "DU-145; Homo sapiens, DU-145, 48 h", "result": 341, "unit": "nM"}, {"measurement": "CC50", "setting": "DU-145; Homo sapiens, DU-145, 48 h, read-out: LC50", "result": "> 100000", "unit": "nM"}, {"measurement": "GI50", "setting": "SNB-19; Homo sapiens, SNB-19, 48 h", "result": 686, "unit": "nM"}, {"measurement": "CC50", "setting": "SNB-19; Homo sapiens, SNB-19, 48 h, read-out: LC50", "result": "> 100000", "unit": "nM"}, {"measurement": "TGI", "setting": "SNB-19; SNB-19, CNS cancer (brain tumor), mutant p53, 48 h", "result": "> 100000", "unit": "nM"}, {"measurement": "GI50", "setting": "UACC-62; Homo sapiens, UACC-62, 48 h", "result": 625, "unit": "nM"}, {"measurement": "CC50", "setting": "UACC-62; Homo sapiens, UACC-62, 48 h, read-out: LC50", "result": "> 100000", "unit": "nM"}, {"measurement": "TGI", "setting": "UACC-62; UACC-62, melanoma, wild-type p53, 48 h", "result": "> 100000", "unit": "nM"}, {"measurement": "TGI", "setting": "COLO 205; COLO 205, colon cancer, mutant p53, 48 h", "result": 622, "unit": "nM"}, {"measurement": "GI50", "setting": "COLO 205; Homo sapiens, COLO 205, 48 h", "result": 280, "unit": "nM"}, {"measurement": "CC50", "setting": "COLO 205; Homo sapiens, COLO 205, 48 h, read-out: LC50", "result": 9130, "unit": "nM"}, {"measurement": "GI50", "setting": "TK-10; Homo sapiens, TK-10, 48 h", "result": 6770, "unit": "nM"}, {"measurement": "CC50", "setting": "TK-10; Homo sapiens, TK-10, 48 h, read-out: LC50", "result": "> 100000", "unit": "nM"}, {"measurement": "TGI", "setting": "TK-10; TK-10, renal cancer, mutant p53, 48 h", "result": "> 100000", "unit": "nM"}, {"measurement": "GI50", "setting": "MDA-MB-231; Homo sapiens, MDA-MB-231, 48 h", "result": 359, "unit": "nM"}, {"measurement": "CC50", "setting": "MDA-MB-231; Homo sapiens, MDA-MB-231, 48 h, read-out: LC50", "result": "> 100000", "unit": "nM"}, {"measurement": "TGI", "setting": "MDA-MB-231; MDA-MB-231, breast cancer, mutant p53, 48 h", "result": 1880, "unit": "nM"}, {"measurement": "GI50", "setting": "NCI-H23; Homo sapiens, NCI-H23, 48 h", "result": 438, "unit": "nM"}, {"measurement": "CC50", "setting": "NCI-H23; Homo sapiens, NCI-H23, 48 h, read-out: LC50", "result": "> 100000", "unit": "nM"}, {"measurement": "TGI", "setting": "NCI-H23; NCI-H23, non-small-cell lung cancer, mutant p53, 48 h", "result": "> 100000", "unit": "nM"}, {"measurement": "GI50", "setting": "SK-OV-3; Homo sapiens, SK-OV-3, 48 h", "result": 1390, "unit": "nM"}, {"measurement": "CC50", "setting": "SK-OV-3; Homo sapiens, SK-OV-3, 48 h, read-out: LC50", "result": "> 100000", "unit": "nM"}, {"measurement": "TGI", "setting": "SK-OV-3; SK-OV-3, ovarian cancer, no p53 protein expressed, 48 h", "result": "> 100000", "unit": "nM"}, {"measurement": "GI50", "setting": "SF-268; Homo sapiens, SF-268, 48 h", "result": 581, "unit": "nM"}, {"measurement": "CC50", "setting": "SF-268; Homo sapiens, SF-268, 48 h, read-out: LC50", "result": "> 100000", "unit": "nM"}, {"measurement": "TGI", "setting": "SF-268; SF-268, CNS cancer (brain tumor), mutant p53, 48 h", "result": "> 100000", "unit": "nM"}, {"measurement": "GI50", "setting": "ACHN; Homo sapiens, 48 h", "result": 8500, "unit": "nM"}, {"measurement": "CC50", "setting": "ACHN; [2]", "result": "> 100000", "unit": "nM"}, {"measurement": "TGI", "setting": "ACHN; renal cancer, wild-type p53, 48 h", "result": "> 100000", "unit": "nM"}, {"measurement": "GI50", "setting": "MDA-MB-435; Homo sapiens, MDA-MB-435, 48 h", "result": 233, "unit": "nM"}, {"measurement": "CC50", "setting": "MDA-MB-435; Homo sapiens, MDA-MB-435, 48 h, read-out: LC50", "result": "> 100000", "unit": "nM"}, {"measurement": "TGI", "setting": "MDA-MB-435; MDA-MB-435, melanoma, mutant p53, 48 h", "result": 838, "unit": "nM"}, {"measurement": "TGI", "setting": "HS 578T; HS 578T, breast cancer, mutant p53", "result": "> 100000", "unit": "nM"}, {"measurement": "GI50", "setting": "HS 578T; Homo sapiens, Hs-578T", "result": "> 100000", "unit": "nM"}, {"measurement": "CC50", "setting": "HS 578T; Homo sapiens, Hs-578T, read-out: LC50", "result": "> 100000", "unit": "nM"}, {"measurement": "GI50", "setting": "NCI-H460; Homo sapiens, NCI-H460, 48 h", "result": 429, "unit": "nM"}, {"measurement": "CC50", "setting": "NCI-H460; Homo sapiens, NCI-H460, 48 h, read-out: LC50", "result": "> 100000", "unit": "nM"}, {"measurement": "TGI", "setting": "NCI-H460; NCI-H460, non-small-cell lung cancer, wild-type p53, 48 h", "result": "> 100000", "unit": "nM"}, {"measurement": "GI50", "setting": "SW-620; Homo sapiens, SW-620, 48 h", "result": 369, "unit": "nM"}, {"measurement": "CC50", "setting": "SW-620; Homo sapiens, SW-620, 48 h, read-out: LC50", "result": "> 100000", "unit": "nM"}, {"measurement": "TGI", "setting": "SW-620; SW-620, colon cancer, mutant p53, 48 h", "result": "> 100000", "unit": "nM"}, {"measurement": "GI50", "setting": "SF-539; Homo sapiens, SF-539, 48 h", "result": 418, "unit": "nM"}, {"measurement": "CC50", "setting": "SF-539; Homo sapiens, SF-539, 48 h, read-out: LC50", "result": "> 100000", "unit": "nM"}, {"measurement": "TGI", "setting": "SF-539; SF-539, CNS cancer (brain tumor), mutant p53, 48 h", "result": 20500, "unit": "nM"}, {"measurement": "TGI", "setting": "HCC-2998; HCC-2998, colon cancer, mutant p53, 48 h", "result": 674, "unit": "nM"}, {"measurement": "GI50", "setting": "HCC-2998; Homo sapiens, HCC 2998, 48 h", "result": 272, "unit": "nM"}, {"measurement": "CC50", "setting": "HCC-2998; Homo sapiens, HCC 2998, 48 h, read-out: LC50", "result": "> 100000", "unit": "nM"}, {"measurement": "TGI", "setting": "HT29; HT29, colon cancer, mutant p53, 48 h", "result": "> 100000", "unit": "nM"}, {"measurement": "GI50", "setting": "HT29; Homo sapiens, HT-29, 48 h", "result": 336, "unit": "nM"}, {"measurement": "CC50", "setting": "HT29; Homo sapiens, HT-29, 48 h, read-out: LC50", "result": "> 100000", "unit": "nM"}, {"measurement": "GI50", "setting": "CCRF-CEM; Homo sapiens, 48 h", "result": 422, "unit": "nM"}, {"measurement": "CC50", "setting": "CCRF-CEM; [2]", "result": "> 100000", "unit": "nM"}, {"measurement": "TGI", "setting": "CCRF-CEM; leukemia, mutant p53, 48 h", "result": "> 100000", "unit": "nM"}, {"measurement": "GI50", "setting": "[1]; Homo sapiens, read-out: Mean of Inhibition Data (MID) GI50, 10^MID", "result": 933, "unit": "nM"}, {"measurement": "CC50", "setting": "[1]; Homo sapiens, read-out: Mean of Inhibition Data (MID) LC50, 10^MID", "result": 95500, "unit": "nM"}, {"measurement": "induction of cancer cell death (classification)", "setting": "[1]; NCI 60 panel overall", "result": "acts only cytostatic"}, {"measurement": "Mean of Inhibition Data (MID) TGI, 10^MID", "setting": "[1]; mean over all tested cell lines of the NCI 60 panel", "result": 32.359, "unit": "µM"}]}
